Read-outs that look alike come from different tables or passages of the source. Values belong to the compound of their own block, whether it stands above or below them.
What was measured:
Human plasma stability = assay type: in vitro ADME
Method: The plasma stability of compound IB′ was determined using plasma from four species.

[1] = Maximum tolerated acute dose in rats
Method: (§2) Acute (i.e. single dose) toxicology studies were performed in rats. Acute studies were performed in female Sprague Dawley rats using three animals per treatment group. […] Body weight measurements following oral dosing (see FIG. 4A), along with mortality, clinical observations, food consumption (see FIG. 4B), and complete blood counts (CBCs; see Table 12) were used to determine the maximum tolerated acute dose (MTDacute).

[2] = assay type: in vitro ADME, rat; details: for % Remaining: rat, plasma
Method: (§1) The plasma stability of compound IB′ was determined using plasma from four species. Results for mouse, rat, dog and human are shown in Tables 5, 6, 7 and 8 respectively. Alvocidib and flumazenil were used as controls. In mouse, rat and human plasma, compound IB′ maintained 100% stability after 5 hour incubation. In dog plasma, approximately 90% of compound IB′ remained after 5 hours.

[3] = assay type: in vitro ADME, mouse; details: for % Remaining: mouse, plasma
Method: as §1

[4] = CD-1, mouse, in vivo
[5] = female SHO SCID mice, single dose
Method: Acute studies were performed in female SHO SCID mice using three animals per treatment group. […] Body weight measurements following oral dosing (FIGS. 2A-B) and intravenous (IV) dosing (FIG. 2C-D) were used, along with mortality and clinical observations to determine the maximum tolerated acute dose (MTDacute).

[6] = rat, in vivo, po
Method: as §2

[7] = for MTDrepeat: female SHO SCID mice, five daily doses
Method: Repeat dose toxicology studies were performed in female SHO SCID mice using 3 animals per treatment group. […] Body weight measurements of animals treated by oral (see FIGS. 3A-B) and intravenous (see FIG. 3C-D) dosing over the course of the 5-day repeat dosing period and subsequent 5-day observation period, along with mortality and clinical observations, were used to determine the maximum tolerated dosing schedule (MTDrepeat).

Dog plasma stability = assay type: in vitro ADME
Method: as §1

[8] = Pharmacokinetic profile of alvocidib prodrugs in CD-1 mice (IV/PO)
[9] = rats, single oral dose 36 mg/kg

SMILES: CN1CC[C@H](c2c(O)cc(O)c3c(=O)cc(-c4ccccc4Cl)oc23)[C@H](O)C1 [Alvocidib]
% Remaining (Human plasma stability; human plasma, 0 hours): 100.00% | % Remaining (Human plasma stability; human plasma, 0.5 hours): 92.61% | % Remaining (Human plasma stability; human plasma, 1 hour): 93.54% | % Remaining (Human plasma stability; human plasma, 2 hours): 93.29% | % Remaining (Human plasma stability; human plasma, 3 hours): 111.62% | % Remaining (Human plasma stability; human plasma, 4 hours): 100.25% | % Remaining (Human plasma stability; human plasma, 5 hours): 100% | NOAEL ([1]; female, Sprague Dawley, rat, in vivo, po): 9 mg/kg | % Remaining ([2]; 0 h): 100.00% | % Remaining ([2]; 0.5 h): 93.12% | % Remaining ([2]; 1 h): 90.20% | % Remaining ([2]; 2 h): 99.31% | % Remaining ([2]; 3 h): 98.69% | % Remaining ([2]; 4 h): 92.57% | % Remaining ([3]; 0 h): 100.00% | % Remaining ([3]; 0.5 h): 93.58% | % Remaining ([3]; 1 h): 103.12% | % Remaining ([3]; 2 h): 97.19% | % Remaining ([3]; 3 h): 117.38% | % Remaining ([3]; 4 h): 115.72% | Bioavail. [4]: 102 ± 11.7 % F | AUC0-∞ ([4]; iv, 1 mg/kg): 517.0 ± 47.0 ng·h/mL | AUCLast ([4]; iv, 1 mg/kg): 498.0 ± 46.0 ng·h/mL | Clearance ([4]; iv, 1 mg/kg): 31.7 ± 3.3 mL/min/kg | Half life ([4]; iv, 1 mg/kg): 2.0 ± 0.4 h | Vd ([4]; iv, 1 mg/kg): 5.5 ± 1.2 L/kg | VdSS ([4]; iv, 1 mg/kg): 3.8 ± 0.6 L/kg | AUC0-∞ ([4]; po, 10 mg/kg): 5341.1 ± 274.2 ng·h/mL | AUCLast ([4]; po, 10 mg/kg): 5034.1 ± 145.6 ng·h/mL | Half life ([4]; po, 10 mg/kg): 5.7 ± 0.7 h | MTDacute ([5]; dosed intravenously): 7.5 mg/kg | MTDacute ([5]; dosed orally): 15 mg/kg | HCT ([6]; 4.5 mg/kg): 43.6% | MCH ([6]; 4.5 mg/kg): 18.7 pg | MCHC ([6]; 4.5 mg/kg): 35.4 g/dL | MCV ([6]; 4.5 mg/kg): 52.7 fL | PLT ([6]; 4.5 mg/kg): 34.7 10^3/μL | RBC ([6]; 4.5 mg/kg): 8.3 10^6/μL | RDWA ([6]; 4.5 mg/kg): 16.0 fL | WBC ([6]; 4.5 mg/kg): 15.4 10^3/μL | platelet counts versus normal range ([6]; 4.5 mg/kg): outside the normal range | HCT ([6]; 9 mg/kg): 47.1% | MCH ([6]; 9 mg/kg): 19.3 pg | MCHC ([6]; 9 mg/kg): 35.7 g/dL | MCV ([6]; 9 mg/kg): 54.0 fL | PLT ([6]; 9 mg/kg): 36.3 10^3/μL | RBC ([6]; 9 mg/kg): 8.7 10^6/μL | RDWA ([6]; 9 mg/kg): 16.2 fL | WBC ([6]; 9 mg/kg): 16.8 10^3/μL | HCT ([6]; 18 mg/kg): 47.3% | MCH ([6]; 18 mg/kg): 19.3 pg | MCHC ([6]; 18 mg/kg): 35.9 g/dL | MCV ([6]; 18 mg/kg): 53.8 fL | PLT ([6]; 18 mg/kg): 36.1 10^3/μL | RBC ([6]; 18 mg/kg): 8.8 10^6/μL | RDWA ([6]; 18 mg/kg): 16.1 fL | WBC ([6]; 18 mg/kg): 16.9 10^3/μL | abnormal food consumption patterns ([6]; 18 mg/kg): abnormal food consumption patterns were observed | diarrhea ([6]; 18 mg/kg): did show signs of diarrhea | MTDrepeat ([7]; dosed intravenously): 7.5 mg/kg | MTDrepeat ([7]; dosed orally): 7.5 mg/kg | clinical observations ([7]; mouse, in vivo, 15 mg/kg): Lethargy, body weight loss, and deaths were observed | % Remaining (Dog plasma stability; dog plasma, 0 hours): 100.00% | % Remaining (Dog plasma stability; dog plasma, 0.5 hours): 96.41% | % Remaining (Dog plasma stability; dog plasma, 1 hour): 89.16% | % Remaining (Dog plasma stability; dog plasma, 2 hours): 105.76% | % Remaining (Dog plasma stability; dog plasma, 3 hours): 105.84% | % Remaining (Dog plasma stability; dog plasma, 4 hours): 97.65% | % Remaining (Dog plasma stability; dog plasma, 5 hours): 100.40% | % Remaining (Dog plasma stability; dog plasma, 5 hours, listed as alvocidib): 100%

SMILES: CN1CCC(c2c(OP(=O)(O)O)cc(O)c3c(=O)cc(-c4ccccc4Cl)oc23)C(O)C1 (stereo not drawn) [Compound IB]
clinical observations [1, 9]: Diarrhea, body weight loss and increased lethargy were observed | mortality [1, 9]: one animal died on day three, one animal died on day four, and one animal died on day 5 | MTDrepeat ([7]; dosed orally): 7.5 mg/kg

conversion to alvocidib in vivo (alvocidib detected in plasma samples) [8]: did not convert to alvocidib in vivo
SMILES: CN1CC[C@H](c2c(O)cc(O)c3c(=O)cc(-c4ccccc4Cl)oc23)[C@H](OC(=O)C(C)(C)C)C1 [E]

conversion to alvocidib in vivo (alvocidib detected in plasma samples) [8]: did not convert to alvocidib in vivo
SMILES: C[N+]1(C)CC[C@H](c2c(O)cc(O)c3c(=O)cc(-c4ccccc4Cl)oc23)[C@H](O)C1 [F]

% Remaining (Human plasma stability; human, plasma, 0 h): 100.00% | % Remaining (Human plasma stability; human, plasma, 0.5 h): 96.56% | % Remaining (Human plasma stability; human, plasma, 1 h): 90.83% | % Remaining (Human plasma stability; human, plasma, 2 h): 92.41% | % Remaining (Human plasma stability; human, plasma, 3 h): 117.98% | % Remaining (Human plasma stability; human, plasma, 4 h): 95.32% | % Remaining (Human plasma stability; human, plasma, 5 h): 94.63% | plasma stability (in words) [2]: unstable | % Remaining ([2]; 0 h): 100.00% | % Remaining ([2]; 0.5 h): 42.23% | % Remaining ([2]; 1 h): 16.13% | % Remaining ([2]; 2 h): 1.69% | % Remaining ([2]; 3 h): 0.23% | % Remaining ([2]; 4 h): 0.00% | % Remaining ([2]; 5 h): 0.00% | plasma stability (in words) [3]: unstable | % Remaining ([3]; 0 h): 100.00% | % Remaining ([3]; 0.5 h): 29.96% | % Remaining ([3]; 1 h): 10.21% | % Remaining ([3]; 2 h): 1.56% | % Remaining ([3]; 3 h): 0.39% | % Remaining ([3]; 4 h): 0.20% | % Remaining ([3]; 5 h): 0.07% | % Remaining (Dog plasma stability; dog, plasma, 0 h): 100.00% | % Remaining (Dog plasma stability; dog, plasma, 0.5 h): 91.80% | % Remaining (Dog plasma stability; dog, plasma, 1 h): 92.00% | % Remaining (Dog plasma stability; dog, plasma, 2 h): 100.99% | % Remaining (Dog plasma stability; dog, plasma, 3 h): 115.10% | % Remaining (Dog plasma stability; dog, plasma, 4 h): 99.44% | % Remaining (Dog plasma stability; dog, plasma, 5 h): 100.53%
SMILES: CCOC(=O)c1ncn2c1CN(C)C(=O)c1cc(F)ccc1-2 [Flumazenil]

From patent US12338261B2 (SUMITOMO PHARMA ONCOLOGY, INC., priority 2015, dated 2025)
